Activity calls are given as the source filed them. The rule behind the calls is not given here.
Legend:
Nucleic Acid [1] = assay: Induction of Escherichia coli pUC18 DNA condensation at 300 uM after 5 mins by agarose gel electrophoresis; type: nucleic-acid assay
Nucleic Acid [2] = assay: Induction of Escherichia coli pUC18 DNA condensation at 120 uM after 5 mins by agarose gel electrophoresis; type: nucleic-acid assay
Nucleic Acid [3] = assay: Induction of Escherichia coli pUC18 DNA condensation assessed as hydrodynamic diameter at 60 uM after 5 mins by dynamic light scattering analysis; type: nucleic-acid assay
Nucleic Acid [4] = assay: Induction of Escherichia coli pUC18 DNA condensation assessed as hydrodynamic diameter at 120 uM after 5 mins by dynamic light scattering analysis; type: nucleic-acid assay
Nucleic Acid [5] = assay: Induction of Escherichia coli pUC18 DNA condensation assessed as diameter of DNA nano particles at 60 uM after 5 mins by atomic force microscopy; type: nucleic-acid assay
Nucleic Acid [6] = assay: Induction of Escherichia coli pUC18 DNA condensation assessed as diameter of DNA nano particles at 120 uM after 5 mins by atomic force microscopy; type: nucleic-acid assay
Nucleic Acid [7] = assay: Binding affinity to calf thymus DNA assessed as fluorescence quenching after 2 mins by ethidium bromide displacement assay; type: nucleic-acid assay; details: Bos taurus
Nucleic Acid [8] = assay: Induction of Escherichia coli pUC18 DNA condensation at 80 uM after 5 mins by agarose gel electrophoresis in presence of 10 to 400 mM NaCl; type: nucleic-acid assay
Nucleic Acid [9] = assay: Intercalation at calf thymus DNA assessed as increase in viscosity by viscosity titration assay; type: nucleic-acid assay; details: Bos taurus
Nucleic Acid [10] = assay: Reversible condensation of Escherichia coli pUC18 DNA assessed as release of condensed DNA at 120 uM incubated for 5 mins followed by addition of […] NaCl by agarose gel electrophoresis; type: nucleic-acid assay
[11] = Cytotoxicity against human HepG2 cells assessed as cell viability at 120 uM after 24 hrs by MTT assay; type: cell-based; details: read-out: Activity
[12] = Cytotoxicity against human T98G cells assessed as cell viability at 120 uM after 24 hrs by MTT assay; type: cell-based; details: read-out: Activity
Nucleic Acid [13] = assay: Induction of Escherichia coli pUC18 DNA condensation at above 120 uM after 5 mins by agarose gel electrophoresis; type: nucleic-acid assay
T98G = assay: Cytotoxicity against human T98G cells at 30 to 120 uM after 24 hrs by MTT assay; type: cell-based
HepG2 = assay: Cytotoxicity against human HepG2 cells at 30 to 120 uM after 24 hrs by MTT assay; type: cell-based; details: hepg2, 24 h

| Compound | Activity (Nucleic Acid [1]) | Activity (Nucleic Acid [2]) | Activity (Nucleic Acid [3]) [nm] | Activity (Nucleic Acid [4]) [nm] | Activity (Nucleic Acid [5]) [nm] | Activity (Nucleic Acid [6]) [nm] | Kb (Nucleic Acid [7]) [×10⁵ /M] | Activity (Nucleic Acid [8]) | Activity (Nucleic Acid [9]) | Activity (Nucleic Acid [10]) | further results |
| --- | --- | --- | --- | --- | --- | --- | --- | --- | --- | --- | --- |
| C1CNCCCN(CCCN2CCCNCCCNCCC2)CCCNC1 | inactive | – | – | – | – | – | – | – | – | – | – |
| c1ccc2c(CN3CCCNCCCNCCC3)cccc2c1 | inactive | – | – | – | – | – | – | – | – | – | – |
| c1ccc2c(CC(Cn3cc(CN4CCCNCCCNCCC4)nn3)Cn3cc(CN4CCCNCCCNCCC4)nn3)cccc2c1 | – | Active | 181 | 222 | 49 | 56 | 0.98 | inactive | inactive | Active | viability at 24 h, 120 µM [11]: 64%; viability at 24 h, 120 µM [12]: 88% |
| c1ccc2c(CCCN3CCCNCCCNCCC3)cccc2c1 | – | – | – | – | – | – | – | – | – | – | Activity (Nucleic Acid [13]): Active |
| c1c(CN2CCCNCCCNCCC2)nnn1CCCn1cc(CN2CCCNCCCNCCC2)nn1 | inactive | – | – | – | – | – | – | – | – | – | – |
| c1ccc2c(CC(CN3CCCNCCCNCCC3)CN3CCCNCCCNCCC3)cccc2c1 | – | Active | 105 | 146 | 47 | 55 | 1.2 | inactive | inactive | Active | Activity (T98G): Toxic; Activity (HepG2): Toxic |

Source: ChEMBL document CHEMBL1949663, “Effective and reversible DNA condensation induced by bifunctional molecules containing macrocyclic polyamines and naphthyl moieties” (Bioorg Med Chem, 2012)
